SMILES strings stand for the structures.

The first experiment concerns immunoglobulin light chain protein WIL-FL T46L. In words: Differential scanning fluorimetry (thermal shift) assay. Format: binding.
Conditions: not given
In general terms: Differential scanning fluorimetry follows unfolding on heating by fluorescence.
For `CNC(=O)c1nc2c(C)cc(N3CC[C@](C)(c4cccc(F)c4)C3)cn2n1` [Compound 32], the DSF result is “***** (key: 0-0.5° C.=*; >0.5-1 °C =**; >1-1.5° C.=***; >1.5-2.5° C.=****; >2.5° C.=*****)”.

The same experiment, now with this note: Table A; temperature shift [Tm]compound-[Tm]vehicle; recombinant WIL-FL T46L.
Turning to `Cc1cc(N2CC[C@](C)(c3ccccc3)C2)cn2nc(C(=O)N3CCC4(C3)OCC4N3CC4C(C3)C4C(=O)O)nc12` (stereo partly shown) [Compound 375], the DSF entry is recorded as “***** (>2.5° C.=*****)”.
As to `Cc1cc(N2CC[C@](C)(c3ccccc3)C2)cn2nc(C(=O)NC3CCN(c4ccnc(C(=O)O)c4)CC3)nc12` [Compound 264], the DSF result is “***** (>2.5° C.=*****)”.
Still for that read-out and setting: with `COC(=O)C1CCN(C2COC23CC(NC(=O)c2nc4c(C)cc(N5CC[C@](C)(c6ccccc6)C5)cn4n2)C3)CC1` (stereo partly shown) [Compound 360] the entry was “***** (>2.5° C.=*****)”.
On the same count and under the same terms, as for `C[C@]1(c2ccccc2)CCN(c2cc(CO)c3nc(C45CC(N)(CO4)C5)nn3c2)C1` [Compound 59], the entry is “***** (>2.5° C.=*****)”.
As to `Cc1cc(N2CCC(C)(c3ccc(F)c(F)c3)C2)cn2nc(C(=O)N3C[C@@H]4CN(c5cccc(C(=O)O)n5)C[C@@H]4C3)nc12` (stereo partly shown) [Compound 421], the DSF entry is reported as “***** (>2.5° C.=*****)”.
Still for that read-out and setting: with `CCNC(=O)C12COC(c3nc4c(C)cc(N5CC[C@](C)(c6ccccc6)C5)cn4n3)(C1)C2` [Compound 54] the entry was “***** (>2.5° C.=*****)”; with `Cc1cc(N2CC[C@](C)(c3ccccc3)C2)cn2nc(C34CC(CO3)C4C(C)(C)O)nc12` (stereo partly shown) [Compound 73], “***** (>2.5° C.=*****)”.
Still for that read-out and setting: as for `Cc1cc(N2CC[C@](C)(c3ccccc3)C2)cn2nc(C(=O)NC3CCC(O)(C(F)(F)F)C3)nc12` (stereo partly shown) [Compound 104], the entry is “***** (>2.5° C.=*****)”; as for `Cc1cc(N2CC[C@](C)(c3ccccc3)C2)cn2nc(C(=O)NC3CCCN(c4cccc(C(=O)O)n4)C3)nc12` (stereo partly shown) [Compound 219], “***** (>2.5° C.=*****)”; as for `Cc1nc(C2C3(CO)COC2(c2nc4c(C)cc(N5CC[C@](C)(c6ccccc6)C5)cn4n2)C3)n[nH]1` (stereo partly shown) [Compound 43], “***** (>2.5° C.=*****)”.
Consider `Cc1cc(N2CC[C@](C)(c3ccccc3)C2)cn2nc(C(=O)N3Cc4nc(-c5cccc(C(=O)O)n5)oc4C3)nc12` [Compound 250], for which the DSF result is “***** (>2.5° C.=*****)”.
On to `Cc1cc(N2CC[C@](C)(c3ccccc3)C2)cn2nc(C(=O)N(C)[C@@H]3CCNC3)nc12` [Compound 114], for which the DSF result is “***** (>2.5° C.=*****)”.
On the same count and under the same terms, with `Cc1cc(N2CC[C@](C)(c3ccccc3)C2)cn2nc(C(=O)N3CCC4(CC3)CCN(c3cccc(C(=O)O)n3)C4)nc12` [Compound 239] the entry was “***** (>2.5° C.=*****)”; with `CNC(=O)c1cc2c(C)cc(N3CC[C@](C)(c4ccccc4)C3)cn2n1` [Compound 433], “***** (>2.5° C.=*****)”; with `Cc1cc(N2CC[C@](C)(c3ccccc3)C2)cc2oc(C(=O)N3CC4CN(c5cccc(C(=O)O)n5)CC4C3)nc12` (stereo partly drawn) [Compound 40, 6-(5-(4-methyl-6-((R)-3-methyl-3-phenylpyrrolidin-1-yl)benzo[d]oxazole-2-carbonyl)hexahydropyrrolo[3,4-c]pyrrol-2(1H)-yl)picolinic acid], “***** (>2.5° C.=*****)”.
On the same count and under the same terms, as for `Cc1cc(N2CC[C@](C)(c3ccccc3)C2)cn2nc(C34CC(CN)(C3)OC4(C)C)nc12` [Compound 65], the entry is “**** (>1.5-2.5° C.=****)”; as for `Cc1cc(N2CC[C@](C)(c3ccccc3)C2)cn2nc(C(=O)NC3CCN(c4cccc(C(=O)O)n4)CC3(C)C)nc12` (stereo partly shown) [Compound 261], “***** (>2.5° C.=*****)”; as for `Cc1cc(N2CC[C@](C)(c3ccccc3)C2)cn2nc(C(=O)NCC3(C(=O)O)CC3)nc12` [Compound 165], “***** (>2.5° C.=*****)”.

Still in this experiment, the particulars now being: Table B; temperature shift [Tm]compound-[Tm]vehicle; recombinant WIL-FL T46L.
Turning to `Cc1cc(N2CC[C@](C)(c3ccccc3)C2)cn2nc([C@]34C[C@H](CO3)[C@@H]4N3CC4(CC4)NC3=O)nc12` [Compound 523], the DSF result is “***** (>2.5° C.=*****)”.
For the compound `Cc1cc(N2CC[C@](C)(c3ccccc3)C2)cn2nc(C(=O)N3CCC4(CCN(c5cc(C(=O)O)cnn5)C4)C3)nc12` (stereo partly shown) [Compound 626], the DSF entry is “***** (>2.5° C.=*****)”.
Consider `CNC(=O)c1nc2c(C(F)F)cc(N3CC[C@](C)(c4ccccc4)C3)cn2n1` [Compound 760, (R)-8-(difluoromethyl)-N-methyl-6-(3-methyl-3-phenylpyrrolidin-1-yl)-[1,2,4]triazolo[1,5-a]pyridine-2-carboxamide], for which the DSF entry was “***** (>2.5° C.=*****)”.
Turning to `Cc1cc(N2CC[C@](C)(c3ccccc3)C2)cn2nc(C(=O)N3CC[C@@]4(CCN(C(=O)CC(C)(C)O)C4)C3)nc12` [Compound 721], the DSF entry is “***** (>2.5° C.=*****)”.
Regarding `Cc1cc(N2CC[C@](C)(c3ccccc3)C2)cn2nc(C34CC(CO)(CO3)C4c3nnn(C)n3)nc12` (stereo partly shown) [Compound 570, (5-(2-methyl-2 h-tetrazol-5-yl)-1-(8-methyl-6-((r)-3-methyl-3-phenylpyrrolidin-1-yl)-[1,2,4]triazolo[1,5-a]pyridin-2-yl)-2-oxabicyclo[2.1.1]hexan-4-yl)methanol], the DSF result is recorded as “***** (>2.5° C.=*****)”.
`Cc1cc(N2CC[C@](C)(c3ccccc3)C2)cn2nc(C(=O)N3CC[C@H]4[C@@H]3CC(=O)N4c3cccc(C(=O)O)n3)nc12` [Compound 704, 6-((3aS,6aS)-4-(8-methyl-6-((R)-3-methyl-3-phenylpyrrolidin-1-yl)-[1,2,4]triazolo[1,5-a]pyridine-2-carbonyl)-2-oxohexahydropyrrolo[3,2-b]pyrrol-1(2H)-yl)picolinic acid]: the DSF entry is recorded as “***** (>2.5° C.=*****)”.
`Cc1cc(N2CC[C@](C)(c3ccccc3)C2)cn2nc(C(=O)NC3C4CCN(c5cccc(C(=O)O)n5)CC43)nc12` (stereo partly drawn) [Compound 685, 6-(7-(8-methyl-6-((R)-3-methyl-3-phenylpyrrolidin-1-yl)-[1,2,4]triazolo[1,5-a]pyridine-2-carboxamido)-3-azabicyclo[4.1.0]heptan-3-yl)picolinic acid]: the DSF result was “***** (>2.5° C.=*****)”.
For `COc1ccc(OCC2C3COC2(c2nc4c(C)cc(N5CC[C@](C)(c6ccccc6)C5)cn4n2)C3)cn1` (stereo partly shown) [Compound 499], the DSF result is “***** (>2.5° C.=*****)”.
In the case of `Cc1cc(N2CC[C@](C)(c3ccccc3)C2)cn2nc(C(=O)N3CCC(O)(CNc4cccc(C(=O)O)n4)C3)nc12` (stereo partly shown) [Compound 686], the DSF entry was “***** (>2.5° C.=*****)”.
On the same count and under the same terms, with `Cc1cc(N2CC[C@](C)(c3ccccc3)C2)cn2nc(C(=O)NC3(CO)CCCN(c4cccc(C(=O)O)n4)C3)nc12` (stereo partly drawn) [Compound 682, 6-[3-(hydroxymethyl)-3-[[8-methyl-6-[(3R)-3-methyl-3-phenyl-pyrrolidin-1-yl]-[1,2,4]triazolo[1,5-a]pyridine-2-carbonyl]amino]-1-piperidyl]pyridine-2-carboxylic acid] the entry was “***** (>2.5° C.=*****)”.
Turning to `Cc1cc(N2CC[C@](C)(c3ccccc3)C2)cn2nc(C34CC(N5CCC(C(=O)O)CC5=O)(CO3)C4CO)nc12` (stereo partly drawn) [Compound 546, 1-(5-(hydroxymethyl)-1-(8-methyl-6-((R)-3-methyl-3-phenylpyrrolidin-1-yl)-[1,2,4]triazolo[1,5-a]pyridin-2-yl)-2-oxabicyclo[2.1.1]hexan-4-yl)-2-oxopiperidine-4-carboxylic acid], the DSF entry is recorded as “***** (>2.5° C.=*****)”.
In the case of `Cc1cc(N2CC[C@](C)(c3ccccc3)C2)cn2nc(C3OC4(C)CC3(C(N)=O)C4)nc12` (stereo partly shown) [Compound 476], the DSF result is “***** (>2.5° C.=*****)”.
